US20220183976A1, “COMPOSITIONS OF DISPERSED PHASE FOR PREPARATION OF APIXABAN-LOADED MICROSPHERES AND BIOCOMPATIBLE POLYMER-BASED APIXABAN-LOADED MICROSPHERES PREPARED THEREFROM” (HLB PHARMACEUTICAL CO., LTD., priority 2019, published 2022)

Assay: Dissolution of Apixaban in non-halogen and halogen organic solvents
Format: physicochemical
Procedure: 25 mg of Apixaban was added to 1 mL of each of ethyl acetate, ethyl formate, methyl propionate, and ethanol and stirred. As a result, it was confirmed that Apixaban was not dissolved in non-halogen organic solvents (FIG. 1).
25 mg of Apixaban was dissolved in 1 mL of dichloromethane, and the mixture was photographed after 12 hours.

COc1ccc(-n2nc(C(N)=O)c3c2C(=O)N(c2ccc(N4CCCCC4=O)cc2)CC3)cc1 [Apixaban]
Dissolution of Apixaban in halogen organic solvent (25 mg in 1 mL of dichloromethane, photographed after 12 hours): completely dissolved in the beginning, but after a certain time, crystals were formed
Dissolution of Apixaban in non-halogen organic solvents (25 mg in 1 mL of each of ethyl acetate, ethyl formate, methyl propionate, ethanol, stirred): not dissolved
Apixaban concentration in dichloromethane at which recrystallization occurs (dichloromethane): ≥ 10 mg/mL
